The test system of series [1] is Staphylococcus epidermidis. Put plainly: Antimicrobial activity against Staphylococcus epidermidis PP62A after 16 to 20 hrs by broth microdilution method. It is filed as functional. On the technique in general: In broth dilution the organism is exposed to a series of concentrations in liquid medium.
The next series relates to Staphylococcus aureus. Put plainly: Antimicrobial activity against methicillin-resistant Staphylococcus aureus ATCC 43300 after 16 to 20 hrs by broth microdilution method. Type of series: functional.
A further series has as its system Klebsiella pneumoniae. Put plainly: Antimicrobial activity against Klebsiella pneumoniae ATCC 13883 after 16 to 20 hrs by broth microdilution method. It is filed as functional.
The test system of series [2] is Plasmodium falciparum. Put plainly: Antimalarial activity against chloroquine-resistant Plasmodium falciparum Dd2 after 72 hrs by NBT based LDH assay. It is filed as functional. The conditions noted are these: Dd2, 72 h.
Another series deals with Proteus mirabilis. Put plainly: Antimicrobial activity against Proteus mirabilis ATCC 7002 after 16 to 20 hrs by broth microdilution method. Type of series: functional.
For another series, the system named is Escherichia coli. Put plainly: Antimicrobial activity against Escherichia coli ATCC 25922 after 16 to 20 hrs by broth microdilution method. Type of series: functional.
A short description of series [3]: Induction of bulk conductivity in soybean asolectin planar lipid bilayers assessed as residual conductance of black lipid bilayer at 500 nM at pH 8.
The nature of series [4]: Induction of bulk conductivity in soybean asolectin planar lipid bilayers assessed as residual conductance of black lipid bilayer at 0.5 nM at pH 8.
The subject of the next series is Enterococcus faecalis. Put plainly: Antimicrobial activity against Enterococcus faecalis ATCC 29212 after 16 to 20 hrs by broth microdilution method. Type of series: functional.
The test system of series [5] is Plasmodium falciparum. Put plainly: Antimalarial activity against chloroquine-sensitive Plasmodium falciparum 3D7 after 72 hrs by NBT based LDH assay. It is filed as functional. The conditions noted are these: 3D7, 72 h.
The subject of the next series is Enterococcus faecium. Put plainly: Antimicrobial activity against Enterococcus faecium DSMZ 20477 after 16 to 20 hrs by broth microdilution method. Type of series: functional.
Another series concerns Pseudomonas aeruginosa. Put plainly: Antimicrobial activity against Pseudomonas aeruginosa ATCC 27853 after 16 to 20 hrs by broth microdilution method. It is filed as functional.
The test system of another series is Streptococcus pneumoniae. Put plainly: Antimicrobial activity against Streptococcus pneumoniae serotype 19A after 16 to 20 hrs by broth microdilution method. It is filed as functional.
The nature of series [6]: Hemolytic activity against human erythrocytes at 20 to 140 uM after 30 mins. It is filed as ADME, cell-based. The conditions noted are these: erythrocyte, 0.5 h.

Converted amounts (≈) assume the structure as drawn. Where a SMILES comes first, the peptide text is derived from it. [ ]: non-standard residue; d: D form. The star is where a group is joined. NHCH2CH2OH = OCCN*; For = O=C*

Turning to `CC(=O)N[C@H](C(=O)NCC(=O)N[C@@H](C)C(=O)N[C@H](CC(C)C)C(=O)N[C@@H](C)C(=O)N[C@@H](C(=O)N[C@H](C(=O)N[C@@H](C(=O)N[C@@H](Cc1c[nH]c2ccccc12)C(=O)N[C@H](CC(C)C)C(=O)N[C@@H](Cc1c[nH]c2ccccc12)C(=O)N[C@H](CC(C)C)C(=O)N[C@@H](Cc1c[nH]c2ccccc12)C(=O)N[C@H](CC(C)C)C(=O)N[C@@H](Cc1c[nH]c2ccccc12)C(=O)NCCS)C(C)C)C(C)C)C(C)C)C(C)C`, the MIC (in series [1]; in the series with Staphylococcus aureus; against Klebsiella pneumoniae; against Proteus mirabilis; in the series on Escherichia coli; against Enterococcus faecalis) was greater than 64 µg/mL throughout. In addition, the values for the MIC against Enterococcus faecium, against Pseudomonas aeruginosa and in the series on Streptococcus pneumoniae were greater than 64 µg/mL, greater than 64 µg/mL and 0.05 µg/mL (≈ 0.0261 µM), respectively. In addition, the IC50 in the series with Plasmodium falciparum [2] turned out to be 8 nM; in the series with Plasmodium falciparum [5] it was 5.5 nM. Further, the Activity in series [3] stood at 93 uS; in series [4], 1.9 uS.
In the case of `CC[C@H]1OC(=O)[C@H](C)[C@@H](O[C@H]2C[C@@](C)(OC)[C@@H](O)[C@H](C)O2)[C@H](C)[C@@H](O[C@@H]2O[C@H](C)C[C@H](N(C)C)[C@H]2O)[C@](C)(O)C[C@@H](C)C(=O)[C@H](C)[C@@H](O)[C@]1(C)O` [ERYTHROMYCIN], the MIC in series [1] is greater than 64 µg/mL; in the series on Staphylococcus aureus, 0.5 µg/mL (≈ 0.681 µM); in the series on Klebsiella pneumoniae, greater than 64 µg/mL; in the series on Proteus mirabilis it was greater than 64 µg/mL; in the series on Escherichia coli, greater than 32 µg/mL; against Enterococcus faecalis, 1 µg/mL (≈ 1.36 µM). For the same molecule, the MIC in the series with Enterococcus faecium is 2 to 4 µg/mL (≈ 2.73 to 5.45 µM); in the series with Pseudomonas aeruginosa, greater than 64 µg/mL; against Streptococcus pneumoniae, greater than 64 µg/mL.
For the molecule `CC(C)C[C@@H](NC(=O)[C@H](C)NC(=O)CNC(=O)[C@@H](NC=O)C(C)C)C(=O)N[C@@H](C)C(=O)N[C@@H](C(=O)N[C@H](C(=O)N[C@@H](C(=O)N[C@@H](Cc1c[nH]c2ccccc12)C(=O)N[C@H](CC(C)C)C(=O)N[C@@H](Cc1c[nH]c2ccccc12)C(=O)N[C@H](CC(C)C)C(=O)N[C@@H](Cc1c[nH]c2ccccc12)C(=O)N[C@H](CC(C)C)C(=O)N[C@@H](Cc1c[nH]c2ccccc12)C(=O)NCCO)C(C)C)C(C)C)C(C)C` (For-VGA[dL]A[dV]V[dV]W[dL]W[dL]W[dL]W-NHCH2CH2OH), the MIC is 0.5 µg/mL (≈ 0.266 µM) in series [1]; 64 µg/mL (≈ 34 µM) in the series on Staphylococcus aureus; greater than 64 µg/mL in the series with Klebsiella pneumoniae; greater than 64 µg/mL against Proteus mirabilis; greater than 64 µg/mL against Escherichia coli; 1 µg/mL (≈ 0.531 µM) with Enterococcus faecalis. The results for the MIC with Enterococcus faecium, in the series on Pseudomonas aeruginosa and in the series on Streptococcus pneumoniae were 2 µg/mL (≈ 1.06 µM), greater than 64 µg/mL and 0.05 µg/mL (≈ 0.0266 µM), respectively. In addition, the results for the IC50 with Plasmodium falciparum [2] and in the series on Plasmodium falciparum [5] were 0.014 nM and 0.05 nM, respectively. The Activity in [4] was greater than 50 uS; in series [6], “Toxic”.
In the case of `CC(C)C[C@H]1NC(=O)[C@H](C)NC(=O)CNC(=O)[C@H](C(C)C)NC(=O)CCSSCCNC(=O)[C@H](Cc2c[nH]c3ccccc23)NC(=O)[C@@H](CC(C)C)NC(=O)[C@H](Cc2c[nH]c3ccccc23)NC(=O)[C@@H](CC(C)C)NC(=O)[C@H](Cc2c[nH]c3ccccc23)NC(=O)[C@@H](CC(C)C)NC(=O)[C@H](Cc2c[nH]c3ccccc23)NC(=O)[C@@H](C(C)C)NC(=O)[C@H](C(C)C)NC(=O)[C@@H](C(C)C)NC(=O)[C@H](C)NC(=O)[C@@H](CC(C)C)NC(=O)[C@H](C)NC(=O)CNC(=O)[C@H](C(C)C)NC(=O)CCSSCCNC(=O)[C@H](Cc2c[nH]c3ccccc23)NC(=O)[C@@H](CC(C)C)NC(=O)[C@H](Cc2c[nH]c3ccccc23)NC(=O)[C@@H](CC(C)C)NC(=O)[C@H](Cc2c[nH]c3ccccc23)NC(=O)[C@@H](CC(C)C)NC(=O)[C@H](Cc2c[nH]c3ccccc23)NC(=O)[C@@H](C(C)C)NC(=O)[C@H](C(C)C)NC(=O)[C@@H](C(C)C)NC(=O)[C@H](C)NC1=O`, the MIC (in series [1]; in the series on Staphylococcus aureus; in the series with Klebsiella pneumoniae; in the series on Proteus mirabilis; against Escherichia coli; with Enterococcus faecalis) was greater than 64 µg/mL each time. The minimal inhibitory concentration (MIC) with Enterococcus faecium, in the series with Pseudomonas aeruginosa and against Streptococcus pneumoniae was greater than 64 µg/mL throughout. Further, the IC50 came out at 2.7 nM in the series on Plasmodium falciparum [2] and 2.9 nM in the series with Plasmodium falciparum [5]. For the same molecule, the Activity in [3] was less than 0.3 uS.

One may read the MIC as the lowest concentration found to suppress growth. High values mean a less susceptible organism, low ones a more susceptible organism. What is called IC50 is the concentration at which inhibition is half-maximal.

(Values after ChEMBL document CHEMBL3870335, “Bioactivity of topologically confined gramicidin A dimers” (Bioorg Med Chem, 2017).)
